What was measured:
[1] = system: MCF7-SHON cells; experiment: Total cell number assays in MCF7-Vec and MCF7-SHON stable cells; assay type: cell-based, human
Description: (§1) FIGS. 12A-C. SHON is an estrogen inducible gene. (A) RT-PCR. MCF-7 cells were cultured for 24 h in RPMI media containing 10% foetal bovine serum (FBS). Prior to 17β-estradiol (E2) treatment, cells were further cultured for 72 h in phenol red-free medium containing 10% charcoal stripped-FBS. Cells were then treated with 10 nM of E2. Total RNAs were isolated from the cells at indicated time points and the expression of SHON mRNA was determined by One-Step RT-PCR kits (Qiagen) with the SHON-specific primer pairs of SHONc5 and SHONc3 (Table 1). β-ACTIN was included as the RNA input control using forward primer: 5′-ATCATATCGCCGCGCTCG-3′ (SEQ ID NO: 9) and reverse primer: 5′-CGCTCGGTGAGGATCTTCA-3′ (SEQ ID NO: 10). The bp sizes of amplified products are shown on the right. (B) MCF7-Vec and MCF7-SHON cells were treated with DMSO vehicle (−) or 10 nM of E2 (+) for 72 h in phenol red-free medium containing 10% charcoal stripped-FBS. The expression of SHON in whole cell lysates was determined by Western blot with the rabbit polyclonal SHONα antibody. Molecular weights of detected protein bands are shown on the right. (C) Total cell number assays. MCF7-Vec and MCF7-SHON stable cells were seeded in phenol-red free RPMI media with 10% charcoal stripped FBS. […] The cell number was determined at the days indicated. […] The cell number was determined at the indicated days. **, P<0.01; ***, P<0.001. […]

[2] = system: breast cancer; details: adjuvant therapy for 5 years, cited from earlier work
[3] = system: SHON; experiment: SHON expression in MCF-7 cells after 17β-estradiol treatment (RT-PCR, Western blot); assay type: cell-based, human
Description: as §1

In the case of `C[C@]12CC[C@@H]3c4ccc(O)cc4C[C@@H](CCCCCCCCC[S+]([O-])CCCC(F)(F)C(F)(F)F)[C@H]3[C@@H]1CC[C@@H]2O` (stereo partly drawn) [ICI 182780], the SHON-stimulated growth ([1]; 100 nM ICI, ER+ MCF-7 cells) is reported as “partially attenuated SHON-stimulated growth advantages”.
In the case of `CC/C(=C(\c1ccccc1)c1ccc(OCCN(C)C)cc1)c1ccccc1` [tamoxifen], the “absolute reduction in mortality” value ([2]; at 15 years) is listed as 9.2% and the “reduction in the annual breast cancer death rate” value [2] is listed as 34%.
In the case of `C[C@]12CC[C@@H]3c4ccc(O)cc4CC[C@H]3[C@@H]1CC[C@@H]2O` [E2, 17β-estradiol], the cell number ([1]; 10 nM E2, MCF7-SHON compared with MCF-Vec cells) is reported as “synergistic increase in cell number”, the “SHON mRNA levels” value ([3]; 10 nM E2, MCF-7 cells, RT-PCR) is reported as “increase in SHON mRNA levels in a time dependent manner” and the SHON protein expression ([3]; 10 nM E2 for 72 h, MCF7-Vec and MCF7-SHON cells, Western blot) is reported as “increased”.

Reference: patent publication US20210018504A1, “SHON AS A PROGNOSTIC BIOMARKER FOR CANCER AND AS A PREDICTOR OF RESPONSE TO ENDOCRINE THERAPY” (priority 2012, published 2021)
